Assay [1] concerns the target T1, 11beta-HSD1 (Homo sapiens, UniProt P28845). The assay is described as follows: Microsome assay: cortisone to cortisol conversion, ELISA detection. The note with it: microsomes from HEK293 cells transiently expressing human 11beta-HSD1; 60 min, 37° C.; Cortisone 50-200 nM, NADPH 1 mM; read-out: h 11-beta-HSD 1 IC50. Set-up: The cDNA encoding the human 11beta-HSD1 protein was cloned into the expression vector pcDNA3; made in house; host or cells: HEK293 cells (ATCC CRL-1573), transient transfection; microsomal fraction. It counts as biochemical. The method, then: The cDNA encoding the human 11beta-HSD1 protein was cloned into the expression vector pcDNA3 ([…]). This construct (for details see Alex Odermatt et al.; J Biol Chem., 1999, Vol. 274, Issue 40, 28762-28770) was used to transiently express the protein in HEK293 cells (ATCC number: CRL-1573, described in Graham, F. L., Smiley, J., Russell, W. C., Nairn, R.; (1977)) using lipofectamine. 48 h after transfection cells were washed twice with ice-cold PBS (Phsophate buffered Saline). To 1 volume of cell suspension in PBS 2 volumes of ice-cold lysis buffer (50 mM Tris; pH7.5; 1 mM EDTA; 100 mM NaCl) were added. The cells were lysed by Potter-homogenization (20 strokes). The resulting homogenate was sonicated with a tip sonicator (10% output; 2×30 sec.) and cleared by a low speed centrifugation (10 min×9000 g; 4° C.). The microsomal fraction was collected by a high speed centrifugation (60 min×110,000 g). […]
Microsomes isolated from HEK293 cells transiently expressing human 11beta-HSD1 (for details see above) were incubated in assay buffer (100 mM NaCl; 1 mM EDTA; 1 mM EGTA; 1 mM MgCl; 250 mM Sucrose; 20 mM Tris pH 7.4; Cortisone 50-200 nM and NADPH 1 mM) together with different concentrations of test substances. […] The amount of Cortisol produced in this assay was determined using a commercially available, ELISA-based Cortisol-detection kit (Distributed by Assay Design, Inc.). […]

Assay [2] has as its target T1, 11beta-HSD1. Set-up: host or cells: human subjects (in vivo). The conditions noted are these: treatment of humans with carbenoxolone; cited from earlier work.

T1 sequence (P28845 whole entry): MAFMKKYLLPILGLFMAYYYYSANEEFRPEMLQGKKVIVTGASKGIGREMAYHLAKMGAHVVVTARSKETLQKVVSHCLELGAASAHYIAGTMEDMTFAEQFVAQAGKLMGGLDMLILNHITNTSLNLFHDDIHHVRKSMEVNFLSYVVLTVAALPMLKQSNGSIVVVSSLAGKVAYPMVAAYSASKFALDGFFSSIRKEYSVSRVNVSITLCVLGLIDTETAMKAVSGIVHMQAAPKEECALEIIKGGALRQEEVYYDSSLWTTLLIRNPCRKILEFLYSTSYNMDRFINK

`O=S(=O)(Nc1ccnc(C2CC2)n1)c1ccc(-c2ccccc2)cc1` [Example 5, Biphenyl-4-sulfonic acid (2-cyclopropyl-pyrimidin-4-yl)-amide]: the IC50 – broadly, the concentration needed to halve the response being measured – on 11beta-HSD1 [1] was determined as 20 nM.
For `CC(C)c1nccc(NS(=O)(=O)c2ccc3ccccc3c2)n1` [Example 26, Naphthalene-2-sulfonic acid (2-isopropyl-pyrimidin-4-yl)-amide], the IC50 on 11beta-HSD1 [1] was found to be 167 nM.
For `CC1(C)[C@@H](OC(=O)CCC(=O)O)CC[C@]2(C)[C@H]3C(=O)C=C4[C@@H]5C[C@@](C)(C(=O)O)CC[C@]5(C)CC[C@@]4(C)[C@]3(C)CC[C@@H]12` [carbenoxolone], the “effect on insulin sensitivity” value at 11beta-HSD1 [2] is recorded as “increase in insulin sensitivity”.
